Consider 19 compounds from article PMC4583267, “Synthesis and Evaluation of Novel Triterpene Analogues of Ursolic Acid as Potential Antidiabetic Agent” (PLoS ONE, 2015).

The target in the first test is T1, α-glucosidase from baker's yeast (Saccharomyces cerevisiae, UniProt P53341).
T1 construct: purchased
T1 sequence (P53341 whole entry): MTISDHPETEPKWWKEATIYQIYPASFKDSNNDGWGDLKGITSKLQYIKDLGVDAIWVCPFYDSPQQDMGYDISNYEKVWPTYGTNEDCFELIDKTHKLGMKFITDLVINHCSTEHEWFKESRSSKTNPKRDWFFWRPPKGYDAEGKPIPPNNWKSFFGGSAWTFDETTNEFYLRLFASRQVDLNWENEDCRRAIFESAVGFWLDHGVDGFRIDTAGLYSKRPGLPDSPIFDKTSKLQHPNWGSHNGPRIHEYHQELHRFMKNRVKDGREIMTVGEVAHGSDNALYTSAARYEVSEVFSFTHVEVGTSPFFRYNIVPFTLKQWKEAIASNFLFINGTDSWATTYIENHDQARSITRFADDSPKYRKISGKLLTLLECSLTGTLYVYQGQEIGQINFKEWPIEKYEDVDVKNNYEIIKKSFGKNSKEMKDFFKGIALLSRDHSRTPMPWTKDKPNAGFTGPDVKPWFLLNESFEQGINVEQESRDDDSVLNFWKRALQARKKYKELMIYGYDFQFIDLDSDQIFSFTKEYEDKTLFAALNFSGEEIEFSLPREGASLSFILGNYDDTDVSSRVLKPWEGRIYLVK
The experiment in a line: biochemical.
Conditions: not given
How it is done: A stock solution of each sample, which has been dissolved in dimethylsulfoxide (DMSO) at the concentrations of 0.05 μM to 500 μM, was diluted with 0.1 M phosphate buffer solution (pH = 6.8) containing an appropriate concentration of enzyme solution (0.1 U/mL). After a 10 min pre-incubation at 37°C of the reactions, the substrate (1mM p-nitrophenyl-α-D-glucopyranoside) was added to initiate them. Then the reactions were incubated for 30 min at 37°C before they were terminated by adding 1 M Na2CO3, and their optical density values were measured at 405 nm by using a Multimodel Plate Reader (Infinite 200). Each experiment was repeated at least four times.
To determine the inhibition activity of each sample, the enzyme activity was measured at a fixed substrate concentration, in which a sequence of sample concentrations were tested. The IC50 value was calculated according to the curve fit to the sequence of concentrations versus the corresponding inhibition abilities. The results were illustrated in Table 1 and Fig 3.
The α-glucosidase inhibition assay was performed according to the method of Worawalai et al. with a slight modification. The α-glucosidase enzyme (0.1 U/mL) and substrate (1 mM p-nitrophenyl-α-D-glucopyranoside) were dissolved in 0.1 M phosphate buffer, pH 6.8. 10 μL of each synthesized analogue (1 mg/mL in DMSO) was pre-incubated with 8 μL of α-glucosidase at 37°C for 10 min. A 100 μL of substrate solution was then added to the reaction mixture, which was further incubated at 37°C for 30 min. Then, the reaction was terminated by adding 100 μL of 1 M Na2CO3 solution. Enzymatic activity was quantified by measuring the absorbance at 405 nm with a use of a Multimodel Plate Reader (Infinite 200). The percentage of inhibition was calculated by using [(A 0-A 1)/A 0]×100%, where A 0 was the absorbance without the sample, and A 1 was the absorbance with the sample. The IC50 value was determined from a plot of the percentage of inhibition versus the sample concentration.
In the case of `C[C@H]1[C@H](C)CC[C@]2(C(=O)O)CC[C@]3(C)C(=CC[C@@H]4[C@@]5(C)CC[C@H](O)C(C)(C)[C@@H]5CC[C@]43C)[C@H]12` [Analogue 1, 3β-hydroxy-urs-12-en-28-oic acid, reference compound], the IC50 was found to be 5080 ± 700 nM. `C[C@@H]1CC[C@]2(C(=O)O)CC[C@]3(C)C(=CCC4[C@@]5(C)CCC(=O)C(C)(C)C5CC[C@]43C)C2[C@H]1C` (stereo partly shown) [Analogue 11, 3-Oxo-urs-12-en-28-oic acid]: the IC50 was 2470 nM.

The same test, now with this note: Table 1; read-out: Observed pIC50 (converted).
As to `C[C@@H]1CC[C@]2(C(=O)Nc3ccccc3)CC[C@]3(C)C(=CCC4[C@@]5(C)CC[C@H](O)C(C)(C)C5CC[C@]43C)C2[C@H]1C` (stereo partly drawn) [Analogue 3b, N-[3β-Hydroxy-urs-12-en-28-oyl]-aminobenzene], the IC50 is 1690 nM. Turning to `C[C@@H]1CC[C@]2(C(=O)Nc3ccccc3F)CC[C@]3(C)C(=CCC4[C@@]5(C)CC[C@H](O)C(C)(C)C5CC[C@]43C)C2[C@H]1C` (stereo partly drawn) [Analogue 4b, N-[3β-Hydroxy-urs-12-en-28-oyl]-o-fluoroaniline], the IC50 is 1510 nM. Same read-out and setting: the result for `C[C@@H]1CC[C@]2(C(=O)Nc3ccccc3Cl)CC[C@]3(C)C(=CCC4[C@@]5(C)CC[C@H](O)C(C)(C)C5CC[C@]43C)C2[C@H]1C` (stereo partly drawn) [Analogue 5b, N-[3β-Hydroxy-urs-12-en-28-oyl]-o-chloroaniline] reads 1310 nM; that for `C[C@@H]1CC[C@]2(C(=O)Nc3ccccc3Br)CC[C@]3(C)C(=CCC4[C@@]5(C)CC[C@H](O)C(C)(C)C5CC[C@]43C)C2[C@H]1C` (stereo partly drawn) [Analogue 6b, N-[3β-Hydroxy-urs-12-en-28-oyl]-o-bromoaniline], 2560 nM. As to `C[C@@H]1CC[C@]2(C(=O)Nc3ccc(F)cc3)CC[C@]3(C)C(=CCC4[C@@]5(C)CC[C@H](O)C(C)(C)C5CC[C@]43C)C2[C@H]1C` (stereo partly drawn) [Analogue 7b, N-[3β-Hydroxy-urs-12-en-28-oyl]-p-fluoroaniline], the IC50 was 1670 nM.

Turning to `C[C@@H]1CC[C@]2(C(=O)Nc3ccc(Cl)cc3)CC[C@]3(C)C(=CCC4[C@@]5(C)CC[C@H](O)C(C)(C)C5CC[C@]43C)C2[C@H]1C` (stereo partly drawn) [Analogue 8b, N-[3β-Hydroxy-urs-12-en-28-oyl]-p-chloroaniline], the IC50 was 1270 nM. Same read-out and setting: the result for `C[C@@H]1CC[C@]2(C(=O)Nc3ccc(Br)cc3)CC[C@]3(C)C(=CCC4[C@@]5(C)CC[C@H](O)C(C)(C)C5CC[C@]43C)C2[C@H]1C` (stereo partly drawn) [Analogue 9b, N-[3β-Hydroxy-urs-12-en-28-oyl]-p-bromoaniline] reads 1280 nM; that for `COc1ccc(NC(=O)[C@]23CC[C@@H](C)[C@H](C)C2C2=CCC4[C@@]5(C)CC[C@H](OC(C)=O)C(C)(C)C5CC[C@@]4(C)[C@]2(C)CC3)cc1` (stereo partly drawn) [Analogue 10a, N-[3β-acetoxy-urs-12-en-28-oyl]-p-methoxyamiline], 2010 nM; that for `COc1ccc(NC(=O)[C@]23CC[C@@H](C)[C@H](C)C2C2=CCC4[C@@]5(C)CC[C@H](O)C(C)(C)C5CC[C@@]4(C)[C@]2(C)CC3)cc1` (stereo partly drawn) [Analogue 10b, N-[3β-Hydroxy-urs-12-en-28-oyl]-p-methoxylaniline], 2550 nM.

A further test concerns the target T1, α-glucosidase from baker's yeast.
Test: not given
The following applies: S4 Table; analogues of previous work; cited from earlier work.
As for `CC(=O)O[C@H]1CC[C@@]2(C)C(CC[C@]3(C)C2CC=C2C4[C@@H](C)[C@H](C)CC[C@]4(C(=O)O)CC[C@]23C)C1(C)C` (stereo partly shown) [Analogue 2], the “Observed pIC50” value is given as 5.278.

For the compound `CC(=O)O[C@H]1CC[C@@]2(C)C(CC[C@]3(C)C2CC=C2C4[C@@H](C)[C@H](C)CC[C@]4(C(=O)Nc4ccccc4)CC[C@]23C)C1(C)C` (stereo partly shown) [Analogue 3a], the “Observed pIC50” value was 5.249. With `CC(=O)O[C@H]1CC[C@@]2(C)C(CC[C@]3(C)C2CC=C2C4[C@@H](C)[C@H](C)CC[C@]4(C(=O)Nc4ccccc4F)CC[C@]23C)C1(C)C` (stereo partly shown) [Analogue 4a], the “Observed pIC50” value is on record as 4.848. Turning to `CC(=O)O[C@H]1CC[C@@]2(C)C(CC[C@]3(C)C2CC=C2C4[C@@H](C)[C@H](C)CC[C@]4(C(=O)Nc4ccccc4Cl)CC[C@]23C)C1(C)C` (stereo partly shown) [Analogue 5a], the “Observed pIC50” value is listed as 4.481. On to `CC(=O)O[C@H]1CC[C@@]2(C)C(CC[C@]3(C)C2CC=C2C4[C@@H](C)[C@H](C)CC[C@]4(C(=O)Nc4ccccc4Br)CC[C@]23C)C1(C)C` (stereo partly shown) [Analogue 6a], for which the “Observed pIC50” value is 4.954.

Take `CC(=O)O[C@H]1CC[C@@]2(C)C(CC[C@]3(C)C2CC=C2C4[C@@H](C)[C@H](C)CC[C@]4(C(=O)Nc4ccc(F)cc4)CC[C@]23C)C1(C)C` (stereo partly shown) [Analogue 7a]: the “Observed pIC50” value is 5.185. On to `CC(=O)O[C@H]1CC[C@@]2(C)C(CC[C@]3(C)C2CC=C2C4[C@@H](C)[C@H](C)CC[C@]4(C(=O)Nc4ccc(Cl)cc4)CC[C@]23C)C1(C)C` (stereo partly shown) [Analogue 8a], for which the “Observed pIC50” value is 5.489. As for `CC(=O)O[C@H]1CC[C@@]2(C)C(CC[C@]3(C)C2CC=C2C4[C@@H](C)[C@H](C)CC[C@]4(C(=O)Nc4ccc(Br)cc4)CC[C@]23C)C1(C)C` (stereo partly shown) [Analogue 9a], the “Observed pIC50” value is reported as 5.030.

The same test, now with this note: values of earlier work; cited from earlier work.
Turning to `CC(=O)O[C@H]1CC[C@@]2(C)C(CC[C@]3(C)C2CC=C2C4[C@@H](C)[C@H](C)CC[C@]4(C(=O)O)CC[C@]23C)C1(C)C` (stereo partly shown) [Analogue 2], the IC50 was 5270 ± 350 nM. As to `CC(=O)O[C@H]1CC[C@@]2(C)C(CC[C@]3(C)C2CC=C2C4[C@@H](C)[C@H](C)CC[C@]4(C(=O)Nc4ccccc4)CC[C@]23C)C1(C)C` (stereo partly shown) [Analogue 3a], the IC50 is 5640 ± 1120 nM. As for `CC(=O)O[C@H]1CC[C@@]2(C)C(CC[C@]3(C)C2CC=C2C4[C@@H](C)[C@H](C)CC[C@]4(C(=O)Nc4ccc(Cl)cc4)CC[C@]23C)C1(C)C` (stereo partly shown) [Analogue 8a], the IC50 is 3240 ± 210 nM.
